Measurements: patent publication US20100135905A1, “ASSESSMENT OF CANCER SUSCEPTIBILITY TO MOLECULAR TARGETED THERAPY BY USE OF RECOMBINANT PEPTIDES” (priority 2004, published 2010)

Tests used:
[1] = system: HUVECs; experiment: Apoptotic nuclei in HUVECs, H&E staining; format: cell-based, human; details: 24 hours
Protocol: After a 24-hour incubation period, cells were fixed and stained with Hematoxylin and Eosin (H&E). Five high-powered fields (400×) were observed and counted for each experimental group.

[2] = system: HUVECs; experiment: Clonogenic survival of HUVECs; format: cell-based, human; details: SU11248 prior to irradiation compared to radiation alone (p<0.05)
[3] = system: tumor vasculature; experiment: Tumor vascular length density, intravital tumor vascular window; format: in vivo, mice
Protocol: Tumor vascular linear density was measured by use of intravital tumor vascular window. […] Five mice were treated in each of the treatment groups, and the vascular length density after treatment was quantified.

[4] = system: tumor endothelial cells; experiment: TUNEL staining of treated tumor sections; format: in vivo
[5] = system: LLC tumors; experiment: Tumor growth delay, LLC hind limb tumors; format: in vivo, mice
Excerpt: As disclosed herein, the induction of apoptosis correlated with the biological response in tumor blood vessels and tumor growth delay. […] Both the inhibitor and radiation were discontinued after day 8. […] Time to doubling of LLC tumor size was 5, 6, 8, and 16 days for each group, respectively.

[6] = system: LLC tumors; experiment: Tumor growth delay with SU11248, LLC tumors; format: in vivo, nude mice; details: drug alone
Protocol: (§1) D54 and LLC tumors were implanted into both hind limbs of nude mice as described in Example 2. Tumors were grown over the course of seven to 10 days.
(§2) In comparison, LLC tumors responded to SU11248 alone or in combination with radiation.

[7] = system: D54 tumors; experiment: Tumor growth delay with SU11248, D54 tumors; format: in vivo, nude mice; details: SU11248 alone
Protocol: as §1, §2

[8] = system: A431, Colo205, H460, C6 and SF763T tumors; details: regression, growth arrest or growth delay of xenografts; cited from earlier work

CCN(CC)CCNC(=O)c1c(C)[nH]c(/C=C2\C(=O)Nc3ccc(F)cc32)c1C [SU11248]
Percentage of endothelial cells with apoptotic nuclei ([1]; 100 nM SU11248 alone): 7%
Percentage of endothelial cells with apoptotic nuclei ([1]; 100 nM SU11248 followed by 6 Gy): 21%
Clonogenic survival [2]: significant reduction in clonogenic survival
Vascular length density (VLD) in tumors ([3]; SU11248 40 mg/kg followed by 3 Gy, within 72 hours): 8 % of that at 0 hours
Vascular length density (VLD) in tumors ([3]; SU11248 alone): 84 % that of 0 hour
Threshold radiation dose for induction of apoptosis ([4]; SU11248 administered prior to irradiation, tumor endothelium): 2 Gy
TUNEL staining of tumor sections ([4]; SU11248 alone): no TUNEL staining
TUNEL staining of tumor sections ([4]; SU11248 followed by 3 Gy, co-localization with vWF): positive TUNEL staining in endothelial cells
Time to doubling of LLC tumor size ([5]; SU11248 40 mg/kg i.p. 30 minutes before each 3 Gy dose (21 Gy total)): 16 days
Time to doubling of LLC tumor size ([5]; SU11248 40 mg/kg i.p. daily, seven administrations, alone): 6 days
Tumor growth delay [6]: showed a tumor growth delay
Tumor growth delay [7]: did not show tumor growth delay
Anti-tumor activity in mice [8]: broad and potent anti-tumor activity
